Measurements published in ChEMBL document CHEMBL1201862, “PubChem BioAssay data set” (2004).
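Grown in 96-well plates, cells were treated for 48 hours with each compound at five concentrations. Insufficient inhibition: endpoint recorded as highest concentration tested. GI50: concentration for 50% inhibition of growth.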 The source made the active and inactive calls. Rule as the data show it: active = GI50 up to about 1.1 µM and inactive = higher. Where a SMILES comes first, the peptide text is derived from it. [ ]: non-standard residue; d: D form. 2Nal = N[CH](Cc1ccc2ccccc2c1)C(=O)O

Legend:
Assay in all cases: NCI tumour cell line growth inhibition, 48 h
[1] = tested on: SF-539
[2] = tested on: ACHN
[3] = tested on: 786-0
[4] = tested on: OVCAR-4
[5] = tested on: HCT-116
[6] = tested on: LOX IMVI
[7] = tested on: HCT-15
[8] = tested on: MCF7
[9] = tested on: UACC-257
[10] = tested on: SK-MEL-5
[11] = tested on: TK-10
[12] = tested on: UO-31
[13] = tested on: SR
[14] = tested on: MDA-MB-231
[15] = tested on: SK-MEL-28
[16] = tested on: DU-145
[17] = tested on: HOP-92
[18] = tested on: NCI-H522
[19] = tested on: SNB-75
[20] = tested on: MDA-N

Measured: GI50

Cc1sc2nc(-c3cc([N+](=O)[O-])c(Cl)cc3Cl)c(/C=N/NC(=N)N)n2c1C
3.61 µM: [7]
active: [13] 0.411 µM
inactive: [1] 30.5 µM | [2] 5.22 µM | [3] 5.46 µM | [4] 2.36 µM | [5] 4.15 µM | [6] 2.29 µM | [8] 2.86 µM | [9] 10 µM | [10] 6.3 µM | [11] 13.9 µM | [12] 11.4 µM | [14] 6.61 µM | [15] 2.4 µM | [16] 14.5 µM | [17] 7.13 µM | [18] 8.47 µM

CCC(=O)Nc1ccc(NCC(=O)Nc2ccc(Cl)cc2)cc1
inactive: [1] 18.1 µM | [2] 13.3 µM | [3] 17.2 µM | [4] 14 µM | [5] 14.4 µM | [19] 25.5 µM | [6] 13.1 µM | [8] 14.3 µM | [9] 16.6 µM | [10] 15.8 µM | [12] 22.3 µM | [13] 21.3 µM | [15] 19.9 µM | [20] 17.2 µM | [16] 17.9 µM | [17] 17.6 µM | [18] 15 µM
14.4 µM: [7]

N=C(N)C(/N=N\c1ccccc1)C(=N)N (stereo not drawn)
inactive: [1] 14.9 µM | [2] 64.9 µM | [3] 35.6 µM | [4] 42.4 µM | [5] 33.5 µM | [6] 34 µM | [8] 25.6 µM | [9] 33.7 µM | [10] 28 µM | [11] 46.9 µM | [12] 30.5 µM | [14] 15.3 µM | [15] 49.1 µM | [20] 19.5 µM | [16] > 100 µM | [17] 20.3 µM | [18] 36 µM
49.8 µM: [7]

COc1ccc(N2C(=O)C(=O)N(c3ccc(/N=N\c4ccccc4)cc3)C2=S)cc1
inactive: [1] 19.2 µM | [2] 19 µM | [3] 17.5 µM | [4] 18.2 µM | [5] 19.3 µM | [19] 22.6 µM | [6] 18.7 µM | [9] 18.4 µM | [10] 16.7 µM | [11] 20.7 µM | [12] 16.3 µM | [13] 38 µM | [14] 22.8 µM | [15] 23.2 µM | [20] 19.3 µM | [16] 16 µM | [17] 16.8 µM | [18] 5.37 µM
17.2 µM: [7]

Cc1ccc(S(=O)(=O)NC(=O)Nc2ccc(S(N)(=O)=O)cc2S(N)(=O)=O)cc1
> 100 µM: [7]
inactive: [3] > 100 µM | [4] > 100 µM | [5] > 100 µM | [19] > 100 µM | [6] > 100 µM | [8] > 100 µM | [9] > 100 µM | [10] > 100 µM | [11] > 100 µM | [12] > 100 µM | [14] > 100 µM | [15] > 100 µM | [20] > 100 µM | [16] > 100 µM | [17] > 100 µM | [18] > 100 µM

COC(=O)c1ccccc1/C=C1\Cc2c(C)c3c(c(C)c2C1=O)CCC3
> 100 µM: [7]
inactive: [1] 88.9 µM | [2] > 100 µM | [3] 46.6 µM | [4] 30.1 µM | [5] > 100 µM | [19] 63.7 µM | [6] > 100 µM | [8] > 100 µM | [9] > 100 µM | [10] > 100 µM | [11] > 100 µM | [12] > 100 µM | [13] > 100 µM | [15] > 100 µM | [20] > 100 µM | [16] > 100 µM | [17] > 100 µM | [18] > 100 µM

COc1ccc2c(c1)O[C@@H]1C(O)Oc3cc(OC)c(OC)cc3[C@]1(O)C2=O (stereo partly drawn)
inactive: [1] > 100 µM | [2] > 100 µM | [3] > 100 µM | [4] 35.1 µM | [5] 86.3 µM | [19] > 100 µM | [6] 29.9 µM | [8] 55.1 µM | [9] 29 µM | [10] 10.5 µM | [11] > 100 µM | [14] 72.3 µM | [15] > 100 µM | [20] 50.1 µM | [16] > 100 µM | [18] 5.33 µM
> 100 µM: [7]

Cc1cc(OC(=O)Nc2ccc(Cl)cc2)ccc1C(=S)Nc1ccccc1
inactive: [1] > 100 µM | [2] 18.7 µM | [3] 80 µM | [4] 24.8 µM | [5] 28.6 µM | [19] 49.9 µM | [6] 29.3 µM | [8] 34.9 µM | [9] 23.2 µM | [10] 28 µM | [12] 73.5 µM | [13] 64.3 µM | [15] 71.1 µM | [20] 71.3 µM | [17] > 100 µM | [18] 21.6 µM
68.1 µM: [7]

CCc1n[nH]c(=O)n1CCCCCCCCCCCCn1c(CC)n[nH]c1=O
inactive: [1] 48.4 µM | [2] 25.2 µM | [3] 35.5 µM | [4] 20.3 µM | [5] 27 µM | [19] 21 µM | [6] 24.8 µM | [8] 23.9 µM | [9] 11.7 µM | [10] 16.1 µM | [11] 33 µM | [12] 30.7 µM | [13] 19.2 µM | [14] 28.1 µM | [20] 32.1 µM | [17] 37.1 µM | [18] 26.2 µM
40.9 µM: [7]

Cc1ccccc1NC(=O)Cc1csc(N/N=C2\NC(=O)/C(=C/c3cccc([N+](=O)[O-])c3)S2)n1
15.8 µM: [7]
inactive: [1] 17.1 µM | [2] 15.6 µM | [3] 45.2 µM | [4] 20.6 µM | [5] 36.7 µM | [19] 13.1 µM | [6] 30.3 µM | [8] 41.8 µM | [9] 20.3 µM | [10] 23.9 µM | [11] 18.9 µM | [12] 13.1 µM | [14] 21.7 µM | [15] 19.1 µM | [20] 30.5 µM | [16] 36.1 µM | [17] 15.8 µM

COc1cccc2c1C(=O)c1c(O)c3c(c(O)c1C2=O)C[C@H](O)C[C@@H]3OC1CC(N)C(O)C(C)O1 (stereo partly drawn)
active: [5] 0.245 µM | [6] 0.229 µM | [8] < 0.01 µM | [10] 0.522 µM | [13] < 0.01 µM
11.5 µM: [7]
inactive: [1] 1.33 µM | [2] 1.17 µM | [3] 1.32 µM | [4] 4.36 µM | [19] 1.87 µM | [9] 1.58 µM | [11] 1.49 µM | [12] 2.24 µM | [14] 1.78 µM | [15] 1.7 µM | [16] 1.76 µM | [17] 2 µM | [18] 1.57 µM

CCCSc1ccc2[nH]c(/N=C/c3ccccc3)cc2c1
inactive: [1] 20.5 µM | [2] 31.2 µM | [3] 19.1 µM | [4] 16.8 µM | [5] 17.7 µM | [19] 20.5 µM | [6] 17.4 µM | [9] 19.7 µM | [10] 7.14 µM | [12] 30.3 µM | [13] 3.51 µM | [15] 23.7 µM | [20] 7.67 µM | [16] 30.5 µM | [17] 25.5 µM | [18] 15.6 µM
29 µM: [7]

CC[C@H]1C=CCC[C@@]2(C[C@@H]3CC[C@H]4[C@@H](C(=O)OCCCCCCCCCCCCCCCC(=O)N(CCCN)C[C@@H](O)CCN)[C@@]5(CCC[C@@H](C)O5)NC(=[N+]34)N2)O1
inactive: [1] 1.4 µM | [2] 3.9 µM | [3] 1.88 µM | [4] 3.4 µM | [5] 1.61 µM | [6] 1.91 µM | [8] 1.62 µM | [9] 1.75 µM | [10] 1.47 µM | [11] 1.58 µM | [12] 9.18 µM | [13] 1.85 µM | [15] 1.36 µM | [20] 1.66 µM | [16] 1.8 µM | [17] 1.87 µM | [18] 1.66 µM
> 10 µM: [7]

CC1(C)CCC2(C(=O)OC3OC(CO)C(O)C(O)C3O)CCC3(C)C(=CCC4C5(C)CCC(OC6OC(CO)C(O)C(O)C6O)C(C)(C)C5CCC43C)C2C1 (stereo not drawn)
inactive: [1] 5.4 µM | [2] > 25 µM | [3] 17.3 µM | [4] 11.8 µM | [5] 8.61 µM | [19] 11.2 µM | [6] 4.51 µM | [8] 8 µM | [9] 16.9 µM | [10] 9.57 µM | [11] > 25 µM | [12] > 25 µM | [13] 3.89 µM | [14] 9.98 µM | [15] 6.93 µM | [16] > 25 µM | [17] 7.74 µM | [18] 5.36 µM
> 25 µM: [7]

CC(NC(=O)C(N)Cc1ccccc1)C(=O)NC(Cc1ccc(O)cc1)C(=O)NC(Cc1c[nH]c2ccccc12)C(=O)NC(CCCCN)C(=O)NC(C(=O)NC(C)C(=O)NC(Cc1ccc2ccccc2c1)C(N)=O)C(C)C (stereo not drawn) (H-FAYWKVA[2Nal]-NH2; configuration not given here)
inactive: [1] > 12.5 µM | [2] > 12.5 µM | [3] > 12.5 µM | [4] > 12.5 µM | [5] > 12.5 µM | [19] 28.1 µM | [6] > 12.5 µM | [8] > 12.5 µM | [9] > 12.5 µM | [10] > 12.5 µM | [12] > 12.5 µM | [14] > 12.5 µM | [15] > 12.5 µM | [16] > 12.5 µM | [18] > 12.5 µM
> 12.5 µM: [7]
